Paper PMC11673046, “Characterization of a Pyranose Oxidase/C-Glycoside Oxidase from Microbacterium sp. 3H14, Belonging to the Unexplored Clade II of Actinobacterial POx/CGOx” (Biomolecules, 2024)
Where two headings read alike, the source gives them in different places.

Tests used:
Format in all cases: biochemical, Microbacterium sp. 3H14
[1] = target: MPOx
[2] = test system: MPOx; remark: listed apart in the source
[3] = test system: MPOx; remark: listed apart in the source

SMILES	Ki [1]	Km [2]	Km [3]
O=C(CCc1ccc(O)c(O)c1)c1c(O)cc(O)c([C@@H]2O[C@H](CO)[C@@H](O)[C@H](O)[C@H]2O)c1O [Aspalathin]	300 ± 50 µM	85 ± 14 µM	–
OC[C@H]1OC(O)[C@H](O)[C@@H](O)[C@@H]1O (stereo partly drawn) [D-glucose]	–	–	660 ± 30 µM
OC1OC[C@@H](O)[C@H](O)[C@H]1O (stereo partly drawn) [D-xylose]	–	–	19000 ± 1000 µM
O=C(CCc1ccc(O)cc1)c1c(O)cc(O)cc1O[C@@H]1O[C@H](CO)[C@@H](O)[C@H](O)[C@H]1O [Phlorizin]	480 ± 50 µM	57 ± 6 µM	–
